The source of these data is article PMC9161374 (Science Translational Medicine, 2022).

Molecules are shown by their SMILES. “And” between values parts separate entries of the source, which are not always exact repeats. Identical values can stand only once.

Series [1] concerns SARS-CoV-2 replicon system (pBAC-SARS-CoV-2-Replicon-Luc). As to the kind of experiment: microbe, parasite or virus in culture. Type of series: cell-based. As to conditions: for EC50 / EC90: Severe acute respiratory syndrome coronavirus 2, HEK-293T, 60 h; for EC50: read-out: EC50 (Confidence 95%), replicon; for EC90: read-out: EC90 (Confidence 95%), replicon.
The test system of a further series is Vero E6 cells. Briefly: CCK-8 cell viability assay. Type of series: cell-based, African green monkey. As to conditions: individual replicate values, Fig.S4. As for the experimental part:
To investigate the effect of drugs on cell viability, Vero E6 cells were seeded in 96-well plates at a density of 20,000 cells per well and were treated with drugs at indicated concentrations (0, 0.01, 0.1, 1, 5, 10, 50, 75, 100, 200 μM) for 48 hours. Cell viability was tested by using Cell Counting Kit-8 (CCK-8, Bimake, B34302). The figures were plotted from cell viability percentage versus the drug concentrations using GraphPad Prism 6 software.
Fig. S4. Cytotoxicity assay of compounds in Vero E6 cells.
Vero E6 cells were plated in 96-well plates and treated with increasing concentrations
of each indicated compound, ranging from 0 to 200 μM, for 48 hours. Cell viability was
tested using Cell Counting Kit-8 (CCK-8). Data are presented as mean ± SD.
Background: Formazan colour is commonly taken as a measure of viable cells.

Series [2] is described as follows: Permeability and efflux ratio in Caco-2 cells. The format is in vitro ADME. Particulars: human; for Papp A→B: AB; for Papp B→A: BA. The source says:
ATV019, and ATV020 in Caco-2 cells.
Compound Caco-2 AB/BA (Papp (10-6 cm/s)) a Efflux ratio
On the technique in general: Caco-2 cells form a polarised layer with tight junctions and transporters.

`CC(C)C(=O)Nc1ncnn2c([C@]3(C#N)O[C@H](COC(=O)C(C)C)[C@@H](OC(=O)C(C)C)[C@H]3OC(=O)C(C)C)ccc12` [ATV001]: the “activity in the replicon system in comparison with parent GS-441524” value (from here on “activity in the replicon system”) in series [1] is “decreased antiviral activities”.

With `CC(=O)Nc1ncnn2c([C@]3(C#N)O[C@H](COC(C)=O)[C@@H](OC(C)=O)[C@H]3OC(C)=O)ccc12` [ATV002], in series [1], the “activity in the replicon system” value was “decreased antiviral activities”.

In the case of `CC(=O)OC[C@H]1O[C@@](C#N)(c2ccc3c(N)ncnn23)[C@H](OC(C)=O)[C@@H]1OC(C)=O` [ATV003], in series [1], the “activity in the replicon system” value was “did not substantially change the activity”, the EC50 worked out at 829 nM and the EC90 worked out at 2320 nM.

On to `CC(C)C(=O)OC[C@H]1O[C@@](C#N)(c2ccc3c(N)ncnn23)[C@H](OC(=O)C(C)C)[C@@H]1OC(=O)C(C)C` [ATV004], for which, in series [1], the “activity in the replicon system” value is “improved the inhibitory activities”, the half-maximal effective concentration (EC50) amounted to 675 nM and the EC90 worked out at 2070 nM.

For `CC(=O)OC[C@H]1O[C@@](C#N)(c2ccc3c(N)ncnn23)[C@H](O)[C@@H]1O` [ATV007], in series [1], the EC50 came out at 1960 nM and the EC90 came out at 3730 nM.

Consider `CCC(=O)OC[C@H]1O[C@@](C#N)(c2ccc3c(N)ncnn23)[C@H](O)[C@@H]1O` [ATV008], for which, in series [1], the half-maximal effective concentration (EC50) amounted to 815 nM and the concentration for an effect of 90% (EC90) is 3140 nM.

For `CCCC(=O)OC[C@H]1O[C@@](C#N)(c2ccc3c(N)ncnn23)[C@H](O)[C@@H]1O` [ATV0009], the “cell viability (% of control)” value is 109.752 % of control and 112.521 % of control and 116.766 % of control in the series on Vero E6 cells (0.01 μM compound, 0.01 µM); 123.319 % of control and 106.337 % of control and 117.182 % of control with Vero E6 cells (0.1 μM compound, 0.1 µM); 116.074 % of control and 120.089 % of control and 107.814 % of control with Vero E6 cells (1 μM compound, 1 µM); 114.09 % of control and 114.182 % of control and 114.044 % of control in the series with Vero E6 cells (2 μM compound, 2 µM); 120.412 % of control and 124.38 % of control and 128.395 % of control with Vero E6 cells (5 μM compound, 5 µM); 124.625 % of control and 120.839 % of control and 120.84 % of control in the series with Vero E6 cells (10 μM compound, 10 µM). Further, the “cell viability (% of control)” value in the series with Vero E6 cells (50 μM compound, 50 µM) was 90.5983 % of control and 85.7996 % of control and 95.8178 % of control.

Consider `N#C[C@@]1(c2ccc3c(N)ncnn23)O[C@H](COC(=O)C2CC2)[C@@H](O)[C@H]1O` [ATV012], for which, in series [1], the EC50 was 2170 nM and the EC90 came out at 3510 nM.

In the case of `N#C[C@@]1(c2ccc3c(N)ncnn23)O[C@H](COC(=O)C2CCCC2)[C@@H](O)[C@H]1O` [ATV015], in series [1], the EC50 amounted to 713 nM and the EC90 stood at 962 nM.

For the compound `N#C[C@@]1(c2ccc3c(N)ncnn23)O[C@H](COC(=O)CC(F)(F)F)[C@@H](O)[C@H]1O` [ATV016], in series [1], the EC50 was 830 nM and the EC90 turned out to be 1230 nM.

Consider `CC(C)[C@@H](N)C(=O)OC[C@H]1O[C@@](C#N)(c2ccc3c(N)ncnn23)[C@H](O)[C@@H]1O` [ATV019], for which, in series [2], the efflux ratio was 2.47, the Papp A→B was determined as 0.28 ×10⁻⁶ cm/s and the Papp B→A turned out to be 0.68 ×10⁻⁶ cm/s. Besides, in series [1], the EC50 came to 974 nM and the EC90 came to 3810 nM.

With `CC(C)[C@H](N)C(=O)OC[C@H]1O[C@@](C#N)(c2ccc3c(N)ncnn23)[C@H](O)[C@@H]1O` [ATV020], in series [2], the efflux ratio was 1.28, the Papp A→B was 0.17 ×10⁻⁶ cm/s and the Papp B→A was 0.22 ×10⁻⁶ cm/s. In addition, in series [1], the EC50 worked out at 2350 nM and the EC90 was 13400 nM.

As for `CCC(C)[C@H](N)C(=O)OC[C@H]1O[C@@](C#N)(c2ccc3c(N)ncnn23)[C@H](O)[C@@H]1O` (stereo partly shown) [ATV023], in series [1], the EC50 is 950 nM and the EC90 was found to be 2010 nM.

Turning to `CCC(C)[C@@H](N)C(=O)OC[C@H]1O[C@@](C#N)(c2ccc3c(N)ncnn23)[C@H](O)[C@@H]1O` (stereo partly shown) [ATV024], in series [1], the EC50 is 864 nM and the EC90 worked out at 1470 nM.

For the compound `CCC(CC)COC(=O)[C@H](C)N[P@](=O)(OC[C@H]1O[C@@](C#N)(c2ccc3c(N)ncnn23)[C@H](O)[C@@H]1O)Oc1ccccc1` [RDV], the “cell viability (% of control)” value with Vero E6 cells (0.1 μM compound, 0.1 µM) is 100.353 % of control and 102.354 % of control and 103.353 % of control; in the series with Vero E6 cells (1 μM compound, 1 µM), 99.5206 % of control and 102.566 % of control and 112.154 % of control; in the series on Vero E6 cells (2 μM compound, 2 µM), 97.4544 % of control and 95.2342 % of control and 99.3423 % of control; in the series on Vero E6 cells (5 μM compound, 5 µM) it was 91.6526 % of control and 95.3187 % of control and 100 % of control; with Vero E6 cells (10 μM compound, 10 µM) it was 93.1472 % of control and 90.0169 % of control and 88.1839 % of control; in the series on Vero E6 cells (20 μM compound, 20 µM), 90.3424 % of control and 95.3423 % of control and 99.3423 % of control. Also, the “cell viability (% of control)” value in the series with Vero E6 cells (50 μM compound, 50 µM) was 80.3835 % of control and 84.2922 % of control and 85.9278 % of control.

The term EC50 denotes the midpoint of the concentration-response curve. The EC90 is the concentration at which the effect reaches the 90% level. As a reminder, the efflux ratio is a quotient of directional permeabilities that is used to spot active efflux. In general, Papp A→B refers to how fast a substance crosses the layer from the apical side. As a reminder, the Papp B→A is how fast a substance crosses the layer from the basolateral side.
